The record followed here is ChEMBL document CHEMBL1126639, “Centrally acting serotonergic and dopaminergic agents. 2. Synthesis and structure-activity relationships of 2,3,3a,4,9,9a-hexahydro-1H-benz[f]indole derivatives” (J Med Chem, 1993).

For test [1], the system named is Rattus norvegicus. Briefly: Effect on the synthesis rates of dopamine in the rat ventral limbic brain region at 3.0 micro mol/kg. The test is classed as functional, Limbic system.
The test system of test [2] is Felis catus. In words: Maximum decrease of arterial blood pressure at sympathetic nerve activity (SND) in anesthetized cat has been observed following 1 mg/kg dose. The test is classed as functional. Also on record: scale not given: the % may be the effect or the level left.
In test [3] the target is Sodium-dependent dopamine transporter (Rattus norvegicus) (UniProt P23977). Briefly: (§1) Inhibition of firing rates of dopaminergic neurons in the substantia nigra pars compacta by intravenous injection in rats. Format: functional, tissue-based.
The subject of test [4] is Mus musculus. Briefly: Time of effect in the face-to-face behavioral assay in the mouse when a dose of 30 micro mol/kg is administered subcutaneously. The test is classed as functional.
The test system of test [5] is Mus musculus. In words: Effective dose on hypothermia in mouse when administered through peroral route. The test is classed as functional. The following applies: Mus musculus, po; read-out: ED50.
Test [6] deals with Mus musculus. In words: Time of effect in the isolation-induced aggression behavioral assay in the mouse when a dose of 30 micro mol/kg is administered intraperitoneally. Format: functional.
The test system of test [7] is Mus musculus. In words: Time of effect in the isolation-induced aggression behavioral assay in the mouse when a dose of 9.1 micro mol/kg is administered intraperitoneally. The test is classed as functional.
The test system of test [8] is Mus musculus. Briefly: Time of effect in the face-to-face behavioral assay in the mouse when a dose of 0.3 micro mol/kg is administered subcutaneously. Format: functional.
For test [9], the species on record is Mus musculus. In words: Time of effect in the face-to-face behavioral assay in the mouse […]. The test is classed as functional.
Test [10] deals with Rattus norvegicus. In words: Effect on the synthesis rates of serotonin in the rat ventral limbic brain region 3.0 micro mol/kg. Format: functional, Limbic system.
For test [11], the system named is Mus musculus. In words: Time of effect in the face-to-face behavioral assay in the mouse when a dose of 3.0 micro mol/kg is administered subcutaneously. Format: functional.
In test [12] the test system is Mus musculus. In words: Time of effect in the isolation-induced aggression behavioral assay in the mouse when a dose of 3.0 micro mol/kg is administered intraperitoneally. Format: functional.
The species named for test [13] is Felis catus. In words: Percent of arterial blood pressure at sympathetic nerve activity (SND) dose value was determined. Format: functional.
In test [14] the test system is Mus musculus. Briefly: Maximum decrease in temperature when compound is administered subcutaneously. Format: functional.
The subject of test [15] is Mus musculus. Briefly: Effective dose on hypothermia in mouse when administered subcutaneously. Format: functional. The following applies: sc.
Test [16] concerns Felis catus. Briefly: Effective dose at which the sympathetic nerve activity (SND) has been reduced to 50% of the pretreatment value in anesthetized cat. Format: functional.
Test [17] concerns Mus musculus. In words: Time of effect in the isolation-induced aggression behavioral assay in the mouse when a dose of 0.3 micro mol/kg is administered intraperitoneally. Format: functional.
For test [18], the system named is Felis catus. In words: Maximum decrease of sympathetic nerve activity (SND) in anesthetized cat has been expressed as percent control. Format: functional. On the set-up: scale not given: the % may be the effect or the level left.
Test [19] relates to Rattus norvegicus. Briefly: Effect on the synthesis rates of serotonin in the rat ventral limbic brain region 0.3 micro mol/kg. The test is classed as functional, Limbic system.
The test system of test [20] is Mus musculus. Briefly: Time of effect in the isolation-induced aggression behavioral assay in the mouse when a dose of 0.9 micro mol/kg is administered intraperitoneally. Format: functional.
Test [21] addresses Sodium-dependent dopamine transporter (Rattus norvegicus) (UniProt P23977). In words: Inhibition of firing rates of serotonergic neurons in the dorsal raphe nucleus by intravenous injection in rats. The test is classed as functional, tissue-based.
Test [22] deals with Rattus norvegicus. Briefly: Effect on the synthesis rates of dopamine in the rat ventral limbic brain region at 0.3 micro mol/kg. The test is classed as functional, Limbic system.
Test [23] relates to Mus musculus. In words: Maximum decrease in temperature when compound is administered through peroral route. Format: functional.
Test [24] has as its target D(2) dopamine receptor (Homo sapiens, UniProt P14416). Briefly: Binding affinity against [3H]U-86,170-labeled dopamine receptor D2 in cloned CHO cells. Format: cell-based.
For test [25], the system named is Mus musculus. Briefly: Antagonism of apomorphine for 0-10 minutes in reserpinized mice when a dose of 38 micro mol/kg is administered intraperitoneally. Format: functional.
The test system of test [26] is Mus musculus. Briefly: Ability to stimulate dopaminergic systems by effect on locomotor activity in reserpinized mice when a dose of 38 micro mol/kg is administered intraperitoneally. Format: functional.
In test [27] the test system is Mus musculus. Briefly: Ability to stimulate dopaminergic systems by effect on locomotor activity in reserpinized mice when a dose of 0.4 micro mol/kg is administered intraperitoneally. The test is classed as functional.
Test [28] has as its system Mus musculus. In words: Antagonism of apomorphine in reserpinized mice when a dose of 0.4 micro mol/kg is administered intraperitoneally. Format: functional.
In test [29] the test system is Mus musculus. Briefly: Antagonism of apomorphine for 10-20 minutes in reserpinized mice when a dose of 3.8 micro mol/kg is administered intraperitoneally. The test is classed as functional.
Test [30] deals with Mus musculus. In words: Antagonism of apomorphine for 10-20 minutes in reserpinized mice when a dose of 0.4 micro mol/kg is administered intraperitoneally. The test is classed as functional.
For test [31], the system named is Mus musculus. In words: Antagonism of apomorphine in reserpinized mice when a dose of 38 micro mol/kg is administered intraperitoneally. The test is classed as functional.
Test [32] relates to Rattus norvegicus. The description is as §1. The test is classed as functional.
Test [33] concerns Mus musculus. Briefly: Antagonism of apomorphine for 10-20 minutes in reserpinized mice when a dose of 38 micro mol/kg is administered intraperitoneally. The test is classed as functional.
Test [34] concerns Mus musculus. In words: Ability to stimulate dopaminergic systems by effect on locomotor activity in reserpinized mice when a dose of 3.8 micro mol/kg is administered intraperitoneally. The test is classed as functional.
The test system of test [35] is Mus musculus. In words: Antagonism of apomorphine for 0-10 minutes in reserpinized mice when a dose of 3.8 micro mol/kg is administered intraperitoneally. The test is classed as functional.
Test [36] deals with Mus musculus. Briefly: Antagonism of apomorphine in reserpinized mice when a dose of 3.8 micro mol/kg is administered intraperitoneally (**,p<0.10). Format: functional.
For test [37], the system named is Mus musculus. Briefly: Antagonism of apomorphine for 0-10 minutes in reserpinized mice when a dose of 0.4 micro mol/kg is administered intraperitoneally. The test is classed as functional.
The target of test [38] is D(2) dopamine receptor (Rattus norvegicus, UniProt P61169). In words: Binding affinity for [3H]raclopride-labeled dopamine receptor D2 in rat striatum. The test is classed as tissue-based.
For test [39], the system named is Mus musculus. In words: Time of effect in the face-to-face behavioral assay in the mouse when a dose of 8.4 micro mol/kg is administered subcutaneously. The test is classed as functional.
The subject of test [40] is Mus musculus. In words: Time of effect in the face-to-face behavioral assay in the mouse when a dose of 2.8 micro mol/kg is administered subcutaneously. The test is classed as functional.
Test [41] relates to Mus musculus. Briefly: Time of effect in the face-to-face behavioral assay in the mouse when a dose of 28 micro mol/kg is administered subcutaneously. Format: functional.

The term ED50 denotes the dose at which the effect has come halfway, by size or by number of responders. Usually Ki stands for the equilibrium dissociation constant of an inhibitor or competing ligand from its target.

Sequence of Sodium-dependent dopamine transporter (Rattus norvegicus) (P23977 whole entry): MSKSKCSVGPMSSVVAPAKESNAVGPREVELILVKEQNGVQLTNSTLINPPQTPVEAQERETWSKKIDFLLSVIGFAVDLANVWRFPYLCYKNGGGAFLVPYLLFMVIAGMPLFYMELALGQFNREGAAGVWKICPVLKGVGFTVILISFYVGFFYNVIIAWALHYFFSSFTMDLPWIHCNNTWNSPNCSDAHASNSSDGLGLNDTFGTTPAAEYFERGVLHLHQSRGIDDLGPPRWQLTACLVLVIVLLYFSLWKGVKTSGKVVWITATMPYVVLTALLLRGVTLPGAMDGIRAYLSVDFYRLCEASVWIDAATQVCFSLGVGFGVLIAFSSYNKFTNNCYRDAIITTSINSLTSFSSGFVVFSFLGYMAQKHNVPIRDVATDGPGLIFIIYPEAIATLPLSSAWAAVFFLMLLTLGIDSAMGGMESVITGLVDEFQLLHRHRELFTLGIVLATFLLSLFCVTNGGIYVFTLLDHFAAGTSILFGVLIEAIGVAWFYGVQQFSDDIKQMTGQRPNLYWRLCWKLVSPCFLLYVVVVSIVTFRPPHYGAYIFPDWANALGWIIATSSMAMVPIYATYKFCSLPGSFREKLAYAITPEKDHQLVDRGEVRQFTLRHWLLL
Sequence of D(2) dopamine receptor (Homo sapiens, UniProt P14416) (P14416 whole entry): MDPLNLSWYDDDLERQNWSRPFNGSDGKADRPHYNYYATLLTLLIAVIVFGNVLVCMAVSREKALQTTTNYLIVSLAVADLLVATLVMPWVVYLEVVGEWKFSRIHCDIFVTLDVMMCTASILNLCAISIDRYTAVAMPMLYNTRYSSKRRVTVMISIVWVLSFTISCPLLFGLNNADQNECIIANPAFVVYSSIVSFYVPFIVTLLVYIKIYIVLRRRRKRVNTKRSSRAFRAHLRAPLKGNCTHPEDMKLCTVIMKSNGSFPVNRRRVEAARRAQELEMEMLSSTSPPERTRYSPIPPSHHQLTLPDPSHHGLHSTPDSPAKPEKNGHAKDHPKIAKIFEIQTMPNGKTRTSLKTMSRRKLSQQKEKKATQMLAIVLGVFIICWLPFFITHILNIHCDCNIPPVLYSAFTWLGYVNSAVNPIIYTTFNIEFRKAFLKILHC
Sequence of D(2) dopamine receptor (Rattus norvegicus, UniProt P61169) (P61169 whole entry): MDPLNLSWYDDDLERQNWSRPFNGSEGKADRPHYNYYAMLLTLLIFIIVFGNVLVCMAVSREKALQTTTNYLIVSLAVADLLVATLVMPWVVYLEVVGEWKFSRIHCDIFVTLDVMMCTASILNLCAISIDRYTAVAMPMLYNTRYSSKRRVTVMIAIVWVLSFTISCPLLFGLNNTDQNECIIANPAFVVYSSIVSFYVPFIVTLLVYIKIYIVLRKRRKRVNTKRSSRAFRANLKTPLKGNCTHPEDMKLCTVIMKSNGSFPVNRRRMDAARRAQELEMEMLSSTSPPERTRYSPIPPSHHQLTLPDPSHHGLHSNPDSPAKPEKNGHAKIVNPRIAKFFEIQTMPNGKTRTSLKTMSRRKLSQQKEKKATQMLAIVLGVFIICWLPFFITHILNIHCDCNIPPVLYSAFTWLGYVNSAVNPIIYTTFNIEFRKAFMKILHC

As to `CCCN(CCC)C1CCc2cccc(O)c2C1` (configuration not stated) [8-OH-DPAT], the Control in test [1] is recorded as 3%; in [2] it was 57%; in test [10] it was -47%; in test [18] it was 2%; in test [19], -37%; in test [22], 16%. The ED50 in test [3] amounted to 2.25 µmol/kg; in test [5], 9.7 µmol/kg; in test [15] it was 1 µmol/kg; in [16] it was 0.03 µmol/kg; in test [21], 0.005 µmol/kg. Further, the Time in [4] was 4.4 s; in test [6], 351 s; in test [7] it was 437 s; in [8], 1.6 s; in [9] it was 1.1 s; in test [11] it was 5 s. Moreover, the Time in test [12] stood at 310 s; in test [17], 11 s; in test [20], 20 s. In test [13], this molecule returned a BP of 66%. Moreover, the Max temperature decrease in [14] worked out at 7.2; in test [23] it was 7.5.
With `C=CCN1CC[C@@H]2Cc3c(O)cccc3C[C@H]21`, the inhibition constant (Ki) in test [24] was determined as 0.3 nM; in test [38] it was 3 nM. The Locomotor activity in [25] came to 54; in test [26], 1549; in test [27], 1092; in test [28], 141; in [29], 29; in test [30], 61. In addition, the Locomotor activity is listed as 103 in test [31]; 34 in test [33]; 1297 in test [34]; 23 in [35]; 147 in test [36]; 60 in test [37]. Further, in test [32], it took a dose of 0.002 µmol/kg to reach the 50% effect level (ED50).
As for `CN(C)CCCN1c2ccccc2Sc2ccc(Cl)cc21.Cl` [CHLORPROMAZINE HYDROCHLORIDE], the Time in test [39] is listed as 1.3 s; in [9], 3.6 s; in test [40], 5.8 s; in [41], 0 s.
